# Test results as given in patent US20100092402A1, “TREATMENT OF RESPIRATORY DISEASE” (Mucokinetica Ltd., priority 2007, published 2010).
# Experiments:
# [1] = tested on: cystic fibrosis transmembrane regulator (CFTR); assay: Short circuit current recording of HBE cells in Ussing chambers (forskolin ΔIsc); type: cell-based, human; settings: for effect on forskolin ΔIsc compared to control: 90 min pre-treatment
# Experimental: Differentiated HBE cells grown to confluence at an air-liquid interface for 15 to 29 days were used to study substances for ability to achieve long duration down regulation of the epithelial amiloride-sensitive sodium channel (ENaC).
# Step 1: Treatment with substance. For each group of cells treated with a substance, 30 μl of 100 times final concentration of substance was added to the 3 ml basolateral culture medium, mixed and 150 μl of the resultant basolateral fluid was transferred to the apical surface for 5 min. For non-treatment control groups of basolateral fluid with no added substance was transferred to the apical surface. After 5 min. equilibration the excess apical fluid was then transferred back to the basolateral side of the culture well.
# Step 2: Variable period of incubation with the substance. Dependent on the individual experiment the cells were returned to the 37° C. incubator for periods of 0 min. to 120 min.
# Step 3: Period of substance washout with fresh culture medium. For experiments to study the duration of a substance response the HBE cells on Snapwell inserts were washed with fresh culture medium (no added substance) at 37° C. and placed in fresh 6-well plates containing 3 ml fresh culture medium (no added substance) on the basolateral side. […]
# Step 5: Short circuit current (Isc) measurement. […] Silver/silver chloride electrodes (Costar Ltd., UK) were used to monitor Isc, which was recorded continuously throughout each experiment using AcqKnowledge III for MP100WSW data acquisition software (Biopac, Linton Instruments, UK). Transepithelial resistance (RT) was determined every minute by delivering a 5 mV pulse for 3 seconds and recording the change in ISS, over the 3 second period (ΔIsc). RT was calculated using the Ohm's law relationship RT=[V(5 mV)/ΔIsc].
# At 37 min. […] The magnitude of the CFTR Isc response to forskolin was determined for each culture by measuring the difference between Isc immediately prior to addition of forskolin and at plateau at approximately 6 min. following addition of the agent (Forskolin ΔIsc)
# [2] = tested on: amiloride-sensitive (sodium-dependent) component of nasal PD; assay: Nasal PD measurement during perfusion of human nasal epithelium; type: in vivo; settings: for average percent of maximum PD change in response to 10^−5 M-amiloride: 4 experiments, before perfusion 94% and 80%
# Experimental: The method of measurement of nasal PD was an adaptation of that described by Standaert et al. (2004).
# Ringer/HEPES buffer solution was prepared containing 148 mM-NaCl, 4.05 mM-KCl, 1.2 mM-CaCl2, 1.2 mM-MgCl2, 2.4 mM-K2HPO4, 0.4 mM-KH2PO4, 10 mM-HEPES, and adjusted to pH 7.4. Low chloride Ringer/HEPES buffer solution was prepared by replacing NaCl with 148 mM-Na gluconate in the Ringer solution components.
# Agar electrodes were prepared with 3.7% agarose dissolved in Ringer/HEPES buffer pH 7.4. The reference electrode was placed and taped in contact with a small area on the forearm where the epidermis had been removed by gentle abrasion. A dual lumen nasal recording electrode was prepared using a lm length of soft plastic tubing 2.4 mm diameter, into which 1 mm diameter polythene tubing was inserted through the wall and along the lumen for 15 cm from one end. The 2.4 mm diameter tubing was filled with 3.7% agarose dissolved in Ringer/HEPES buffer pH 7.4. The 1 mm diameter tubing was used for perfusion of buffer solutions and drugs to the nasal epithelium. The ends of the agar electrodes were each placed in contact with a calomel half-cell in 3 M-KCl solution. Voltages were measured by connecting the calomel electrodes to a high impedance voltmeter (Keithley 617 programmable electrometer). Output from the voltmeter was recorded by connection to a Biopac MP100 data aquisition unit and PC running Acqknowledge III data acquisition software.
# Nasal PD was recorded via the recording electrode placed in contact with the nasal epithelium approximately 4 cm inside the nostril. The nasal epithelium was perfused according to the following schedule and nasal PD was recorded continuously.
# 1. Ringer/HEPES buffer was perfused at 0.5 ml/min for 5 min, and starting baseline PD was recorded.
# 2. Perfusion was then switched to low chloride Ringer/HEPES buffer pH 7.4 for 30 min during which time initial hyperpolarisation of the epithelium occurred.
# 3. The nasal epithelium was then perfused with 10^−5 M-amiloride in low chloride Ringer/HEPES buffer pH 7.4 for 10 min. Measurement of the amiloride-sensitive (sodium-dependent) component of nasal PD was then made by measuring the difference between the average PD recorded over the 2 min before perfusion with amiloride and the average PD recorded in the period 4 to 6 min after perfusion with amiloride.
# 4. Amiloride was washed away from the nasal epithelium by perfusion with low chloride Ringer/HEPES buffer pH 7.4 for 30 min.
# 5. Steps 3 and 4 were then repeated twice more.
# 6. The nasal epithelium was then perfused with 3 μM 6-amidino-2-napthyl 4-guanidinobenzoate in low chloride Ringer/HEPES buffer pH 7.4 for 60 min.
# 7. Steps 3 and 4 were then repeated a further twice, followed by either a period of administration of amiloride (3 experiments), or a final repetition of both steps 3 and 4 (1 experiment).
# Over the 5 h time course of each experiment nasal PD drifted and oscillated. […] Changes in nasal PD caused by perfusion of amiloride were calculated as the difference between the mean PD recorded in the 2 min period before perfusion with amiloride and the mean PD recorded in the plateau period 4 to 6 min after start of perfusion with amiloride. Within each experiment the change in nasal PD at each period of application of amiloride was expressed as a percentage of the maximum change observed in the experiment.
# prostasin [3] = settings: treatment for 24 h; cited from earlier work
# prostasin [4] = settings: rats infused i.v. for 24h; cited from earlier work
structure (smiles),measurement,setting,value
N=C(N)c1ccc2cc(OC(=O)c3ccc(N=C(N)N)cc3)ccc2c1 [6-amidino-2-napthyl 4-guanidinobenzoate],effect on forskolin ΔIsc compared to control,[1]; 1 μM,no significant effect
same,"forskolin response, treatment vs control","[1]; 1 μM, pre-treatment time range 5 min to 60 min",No significant difference
same,effect on forskolin ΔIsc compared to control,[1]; dose range 30 nM to 3 μM,without effect
same,time following perfusion for which amiloride-sensitive component of nasal PD was reduced,[2]; 3.10^−6 M in low chloride Ringer/HEPES buffer pH 7.4 for 60 min,up to 80 min
same,average percent of maximum PD change in response to 10^−5 M-amiloride,[2]; 40 min after perfusion of 3.10^−6 M for 60 min,29%
same,average percent of maximum PD change in response to 10^−5 M-amiloride,[2]; 80 min after perfusion of 3.10^−6 M for 60 min,55%
same,average percent of maximum PD change in response to 10^−5 M-amiloride,[2]; immediately following 60 min perfusion of 3.10^−6 M,49%
same,prostasin secretion into culture medium,prostasin [3],reduced prostasin secretion
same,levels of prostasin secreted in the urine,prostasin [4],reduced levels of prostasin
